From patent publication US8735410B2, “Quinazoline derivatives as tyrosine kinase inhibitors” (AstraZeneca AB, priority 2005, dated 2014)

Test system: KB cells (human tumour cell line ATCC CCL-17)
Experiment: EGFR driven KB cell proliferation assay (Test b)
Format: cell-based
Conditions: geometric mean of n tests, EGF driven proliferation of KB cells
Method: b) EGFR Driven KB Cell Proliferation Assay
This assay measures the ability of a test compound to inhibit the proliferation of KB cells (human tumour cell line ATCC CCL-17).
KB cells were cultured in Dulbecco's modified Eagle's medium (DMEM) containing 10% foetal calf serum, 2 mM glutamine and 1% non-essential amino acids at 37° C. in a 7.5% CO2 air incubator. Cells were harvested from the stock flasks using Trypsin/ethylaminediaminetetraacetic acid (EDTA). Cell density was measured using a haemocytometer and viability was calculated using trypan blue solution before being seeded at a density of 1.25×10^3 cells per well of a 96 well plate in DMEM containing 2.5% charcoal stripped serum, 1 mM glutamine and 1% non-essential amino acids at 37° C. in 7.5% CO2 and allowed to settle for 4 hours.
Following adhesion to the plate, the cells are treated with or without EGF (final concentration of 1 ng/ml) and with or without compound at a range of concentrations in dimethylsulfoxide (DMSO) (0.1% final) before incubation for 4 days. Following the incubation period, cell numbers were determined by addition of 50 μl of 3-(4,5-Dimethylthiazol-2-yl)-2,5-diphenyltetrazolium bromide (MTT) (stock 5 mg/ml) for 2 hours. MTT solution was then tipped off, the plate gently tapped dry and the cells dissolved upon the addition of 100 μl of DMSO.
Absorbance of the solubilised cells was read at 540 nm using a Molecular Devices ThermoMax microplate reader. Inhibition of proliferation was expressed as an IC50 value. This was determined by calculation of the concentration of compound that was required to give 50% inhibition of EGF driven proliferation. The range of proliferation was calculated from the positive (vehicle plus EGF) and negative (vehicle minus EGF) control values. The IC50 value obtained from basal cell growth gives a measure of selectivity.

SMILES: COc1cc2ncnc(Nc3cccc(Cl)c3F)c2cc1O[C@H]1CCN(C)[C@H](C(N)=O)C1 [Example 1, (2S,4S)-4-({4-[(3-chloro-2-fluorophenyl)amino]-7-methoxyquinazolin-6-yl}oxy)-1-methylpiperidine-2-carboxamide]
- IC50: 56 nM

SMILES: CNC(=O)[C@H]1C[C@H](Oc2cc3c(Nc4cccc(Cl)c4F)ncnc3cc2OC)CCN1C [Example 3, (2R,4R)-4-({4-[(3-chloro-2-fluorophenyl)amino]-7-methoxyquinazolin-6-yl}oxy)-N,1-dimethylpiperidine-2-carboxamide]
- IC50: 23 nM

SMILES: CNC(=O)[C@@H]1C[C@@H](Oc2cc3c(Nc4cccc(Cl)c4F)ncnc3cc2OC)CCN1C [Example 2, (2S,4S)-4-({4-[(3-chloro-2-fluorophenyl)amino]-7-methoxyquinazolin-6-yl}oxy)-N,1-dimethylpiperidine-2-carboxamide]
- IC50: 61 nM
